Laboratory results: patent publication US20240139192A1, “METHODS AND COMPOSITIONS COMPRISING A BRAF INHIBITOR AND A MEK INHIBITOR” (Hoffmann-La Roche Inc., priority 2021, published 2024)

How the values were obtained:
[1] = tested on: P-ERK in A375 cells (V600E mutated BRAF); assay: HTRF assay for P-ERK determination in A375 cells; assay type: cell-based; conditions: Homo sapiens, A-375; A375 cell line, 1 hour drug incubation; read-out: pERK IC50 A375
Text: DMEM no-phenol red medium supplemented with L-glutamine was purchased from (Thermo Fisher Scientific). Fetal bovine serum (FBS) was purchased from VWR. […] 384-well microplates were purchased from Greiner Bio-One, 384-well, (With Lid, HiBase, Low volume cat 784-080).
ERK 1,2 phosphorylation (terminal member of the phosphorylation cascade of the MAPK pathway) is hereafter reported as main readout for the activation status of the MAPK pathway.
In order to allow proper data normalization control wells without drug treatment reported are always included in each plate (according to manufacturer's instruction):
The plate is then centrifuged at 300 rcf for 30 second, sealed to prevent evaporation and incubated overnight in the dark at room temperature.
The plate is then analyzed and fluorescence emission value collected through a Pherastast FSX (BMG Labtech) apparatus at […].
Data are normalized considering the average of the ratio (blank subtracted) derived by DMSO only treated cells as 100% and by considering the average of the ratio (blank subtracted) derived by 10 μM dabrafenib treated cells as 0%. Mean of the normalized points are fitted with sigmoidal curve and IC50 determined. […] Kd is the dissociation constant in the biochemical experiments.

[2] = tested on: P-ERK in A375 NRAS Q61K cells; assay: Western Blot analysis of phosphorylated ERK in A375 NRAS Q61K cells; assay type: cell-based; conditions: 1 h, alone or with 10 nM Cobimetinib, compared with Encorafenib or Encorafenib/Cobimetinib (FIG. 1)
Experimental: Cell lines were obtained from ATCC, maintained in humidified incubators at 5% CO2 in standard conditions and passaged twice a week.
The A375 cell line presenting BRAF V600E and the RAF dimer inducing mutation NRAS Q61K was utilized to model a mechanism of resistance to BRAFi and BRAFi/MEKi combinations.

BRAF = BRAF (Homo sapiens, UniProt P15056); assay: biochemical
BRAF V600E = BRAF V600E (Homo sapiens, UniProt P15056, V600E); assay: biochemical
CRAF = CRAF (Homo sapiens, UniProt P04049); assay: biochemical
[3] = molecular target: C-terminal Src kinase (CSK) (Homo sapiens, UniProt P41240); assay: biochemical
[4] = molecular target: lymphocyte-specific tyrosine protein kinase (LCK) (Homo sapiens, UniProt P06239); assay: biochemical
Chain of lymphocyte-specific tyrosine protein kinase (LCK) (P06239 whole entry): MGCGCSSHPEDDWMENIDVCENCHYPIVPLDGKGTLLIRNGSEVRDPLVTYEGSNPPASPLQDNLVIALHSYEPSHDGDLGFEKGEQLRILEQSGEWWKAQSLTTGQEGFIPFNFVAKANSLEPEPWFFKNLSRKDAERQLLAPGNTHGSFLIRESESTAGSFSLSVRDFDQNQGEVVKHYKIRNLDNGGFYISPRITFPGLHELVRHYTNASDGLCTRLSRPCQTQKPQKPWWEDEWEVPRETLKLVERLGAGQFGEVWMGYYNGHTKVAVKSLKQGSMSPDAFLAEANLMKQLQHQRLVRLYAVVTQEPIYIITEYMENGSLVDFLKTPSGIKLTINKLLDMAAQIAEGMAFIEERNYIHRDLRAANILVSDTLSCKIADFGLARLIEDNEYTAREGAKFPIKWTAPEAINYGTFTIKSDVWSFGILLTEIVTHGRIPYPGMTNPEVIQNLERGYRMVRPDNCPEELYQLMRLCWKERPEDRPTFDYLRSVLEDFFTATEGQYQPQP

Chain of C-terminal Src kinase (CSK) (P41240 whole entry): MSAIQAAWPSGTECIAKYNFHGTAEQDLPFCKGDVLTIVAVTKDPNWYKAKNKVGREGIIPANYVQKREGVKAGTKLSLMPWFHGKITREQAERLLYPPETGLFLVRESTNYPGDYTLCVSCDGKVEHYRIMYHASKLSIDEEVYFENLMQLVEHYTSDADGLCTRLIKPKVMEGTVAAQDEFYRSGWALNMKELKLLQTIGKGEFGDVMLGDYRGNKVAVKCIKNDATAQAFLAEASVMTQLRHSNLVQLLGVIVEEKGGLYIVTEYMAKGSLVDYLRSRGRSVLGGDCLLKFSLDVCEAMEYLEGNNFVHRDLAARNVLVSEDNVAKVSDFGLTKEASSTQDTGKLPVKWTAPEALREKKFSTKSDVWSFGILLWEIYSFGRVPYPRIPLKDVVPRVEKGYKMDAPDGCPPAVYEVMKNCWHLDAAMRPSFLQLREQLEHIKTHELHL
Chain of CRAF (P04049 whole entry): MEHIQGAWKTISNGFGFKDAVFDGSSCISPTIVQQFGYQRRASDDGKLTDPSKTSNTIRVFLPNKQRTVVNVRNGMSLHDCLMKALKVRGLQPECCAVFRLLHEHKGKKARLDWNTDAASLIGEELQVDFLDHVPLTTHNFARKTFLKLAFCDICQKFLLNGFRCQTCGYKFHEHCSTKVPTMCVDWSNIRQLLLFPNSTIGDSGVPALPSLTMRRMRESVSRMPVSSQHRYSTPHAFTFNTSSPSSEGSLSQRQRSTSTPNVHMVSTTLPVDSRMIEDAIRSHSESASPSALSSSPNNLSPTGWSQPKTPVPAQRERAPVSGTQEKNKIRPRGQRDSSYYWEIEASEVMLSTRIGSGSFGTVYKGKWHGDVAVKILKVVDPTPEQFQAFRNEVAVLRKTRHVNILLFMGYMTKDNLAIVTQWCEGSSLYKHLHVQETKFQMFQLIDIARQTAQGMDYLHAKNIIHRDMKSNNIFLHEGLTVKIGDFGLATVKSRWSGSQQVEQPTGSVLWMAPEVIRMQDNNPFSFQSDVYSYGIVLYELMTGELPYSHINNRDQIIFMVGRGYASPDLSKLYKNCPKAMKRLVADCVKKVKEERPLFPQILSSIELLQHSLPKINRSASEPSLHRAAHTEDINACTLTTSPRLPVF
Chain of BRAF V600E (P15056 whole entry V600E): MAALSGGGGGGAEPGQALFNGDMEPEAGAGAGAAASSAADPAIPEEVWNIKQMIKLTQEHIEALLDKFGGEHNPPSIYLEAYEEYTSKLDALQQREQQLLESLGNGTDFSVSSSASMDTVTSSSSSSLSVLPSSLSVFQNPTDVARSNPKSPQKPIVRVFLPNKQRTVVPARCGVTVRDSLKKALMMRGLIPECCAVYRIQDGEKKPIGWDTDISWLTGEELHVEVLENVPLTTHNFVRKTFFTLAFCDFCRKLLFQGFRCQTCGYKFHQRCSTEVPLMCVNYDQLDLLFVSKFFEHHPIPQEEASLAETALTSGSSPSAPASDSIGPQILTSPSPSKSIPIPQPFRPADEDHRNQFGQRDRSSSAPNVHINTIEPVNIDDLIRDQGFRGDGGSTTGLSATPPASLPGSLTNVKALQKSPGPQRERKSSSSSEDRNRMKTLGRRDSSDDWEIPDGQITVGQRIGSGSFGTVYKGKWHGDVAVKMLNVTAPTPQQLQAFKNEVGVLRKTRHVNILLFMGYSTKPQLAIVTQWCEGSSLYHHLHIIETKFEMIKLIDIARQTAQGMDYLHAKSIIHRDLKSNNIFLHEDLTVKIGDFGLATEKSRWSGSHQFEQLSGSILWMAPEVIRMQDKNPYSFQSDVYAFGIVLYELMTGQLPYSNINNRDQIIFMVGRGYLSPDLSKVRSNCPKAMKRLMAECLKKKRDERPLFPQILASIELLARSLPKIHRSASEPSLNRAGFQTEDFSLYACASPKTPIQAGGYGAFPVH
Chain of BRAF (P15056 whole entry): as the sequence (P15056 whole entry V600E) above, with E600V counted along it

| Structure (SMILES) | IC50 [1] | P-ERK inhibition (Western Blot) [2] | Kd (BRAF) | Kd (BRAF V600E) | Kd (CRAF) | Kd [3] | Kd [4] |
| --- | --- | --- | --- | --- | --- | --- | --- |
| Cn1cnc2ccc(Oc3c(F)ccc(NS(=O)(=O)N4CC[C@@H](F)C4)c3C#N)cc2c1=O [(Ia), (3R)-N-[2-cyano-4-fluoro-3-(3-methyl-4-oxo-quinazolin-6-yl)oxy-phenyl]-3-fluoro-pyrrolidine-1-sulfonamide] | 6.9 nM | superior P-ERK inhibition compared to Encorafenib | 0.6 nM | 1.2 nM | 1.7 nM | 23300 nM | 40000 nM |
| Cn1cnc2ccc(Oc3c(F)ccc(NS(=O)(=O)N4CC[C@H](F)C4)c3C#N)cc2c1=O [(Ib), (3S)-N-[2-cyano-4-fluoro-3-(3-methyl-4-oxo-quinazolin-6-yl)oxy-phenyl]-3-fluoro-pyrrolidine-1-sulfonamide] | 10.6 nM |  | 1.3 nM | 0.9 nM | 1.2 nM | 9160 nM | 20100 nM |
